Experimental data published in EP3532040B1, “A PERSONAL CARE COMPOSITION” (Unilever Global IP Limited, priority 2016, dated 2018).

How the values were obtained:
[1] = Visual assessment of color of the compound compared with curcumin; assay type: physicochemical; conditions: color of the compound itself
Description: It is desirable that the color of the novel compound of the present invention lies within the colorless to light yellow range for optimum visual appeal and usage in topical and/or skin care compositions. Visual assessment of color from a solid or solution sample of novel compounds in comparison to a solid or solution sample of curcumin provides a means to determine relative reduction of color and appeal potential. In addition, UV-Vis spectra of solution samples of novel compounds in comparison to a solution sample of curcumin provides a means to measure color experimentally and allows a more direct measurement of color. Thus, using these two simple measurements it is possible to assess the relative reduction in color of novel inventive compounds relative to curcumin and allows prioritization of compounds for further development.

[2] = Color assessment of solutions (L*a*b* color space, Labscan XE, and visual appearance); assay type: physicochemical; conditions: 200 µM in ethyl acetate; for b* / L* / a*: 21 °C; for b*: vehicle 1.78; for L*: vehicle 68.79; for a*: vehicle -0.49
Experimental: Solutions of compound with formula 1 and curcumin were prepared in ethyl acetate (200 µM) and the L*a*b* color space measured at room temperature (21 °C) using a Labscan XE instrument (Hunter Associates Labs Inc., Reston, VA) and processed with Universal Software (version 4.10). […]

[3] = tested on: THP1-XBlue cells; assay: Anti-inflammation efficacy in THP-1 in vitro assay (LPS-stimulated IL-6 release, ELISA); assay type: cell-based; conditions: 24 h, PMA-differentiated cells, LPS alone 10508
Experimental: THP1-XBlue™ (Cat No: thpx-sp, InvivoGen) cells were cultured as suspense in RPMI 1640 medium supplemented with 10% FBS, penicillin (10 U/mL) - streptomycin (10 µg/ML). Cells were differentiated in 24-well plates at the density of 5 × 10^5 cells / well with 100 nM PMA for 72 h. Cells were then co-treated with pure E. coli lipopolysaccharides (LPS) and with active. After 24 h, the supernatants were collected and measured for interleukin (IL)-6 as pro-inflammatory bio-marker using enzyme-linked immunosorbent assay (ELISA).

[4] = tested on: Primary human gingival fibroblasts; assay: Anti-inflammation efficacy in Human Gingival Fibroblasts assay (P. gingivalis-stimulated IL-6, IL-8, MCP-1 release, ELISA); assay type: cell-based; conditions: 20 µM active preincubated 2 h, then heat-inactivated P. gingivalis 4 h
Experimental: Primary human gingival fibroblasts (HGFs, Cat No. 2620, ScienCell™) were cultured in complete fibroblast medium which included 500 mL of basal medium, 10 mL of fetal bovine serum (FBS), 5 mL of fibroblast growth supplement, and 5 mL of penicillin/streptomycin solution (Cat No. 2301, ScienCell™). HGFs were seeded in 24 well-plates at the density of 2 × 10^4 cells / well and cultured for 72 h. Cells were preincubated with active for 2 h. After removal of the active medium, the cells were washed with PBS and further treated with heat-inactivated P. gingivalis (Cat. 33277, ATCC). After 4 h, the supernatants were collected and measured for IL-6, IL-8 and monocyte chemoattractant protein (MCP) -1 as pro-inflammatory bio-markers using ELISA.

[5] = Solubility in solvents compared with curcumin; assay type: physicochemical

| color [1] | Appearance (visual appearance of solution) [2] | b* [2] | L* [2] | a* [2] | solubility in a broad spectrum of solvents [5] | Compound | Concentration of IL-6 ([3]; 10 µM active co-treated with E. coli LPS) [pg/mL] | Concentration of IL-6 ([3]; 20 µM active co-treated with E. coli LPS) [pg/mL] | Concentration MCP-1 ([4]; P. gingivalis alone 388) [pg/mL] | Concentration IL-6 ([4]; P. gingivalis alone 595) [pg/mL] | Concentration IL-8 ([4]; P. gingivalis alone 17100) [pg/mL] |
| --- | --- | --- | --- | --- | --- | --- | --- | --- | --- | --- | --- |
| orange | yellow | 63.88 | 68.53 | -18.66 | – | COc1cc(/C=C/C(=O)CC(=O)/C=C/c2ccc(O)c(OC)c2)ccc1O [Curcumin, reference compound] | – | – | – | – | – |
| light yellow | colorless | 2.49 | 68.62 | -0.68 | significantly improved solubility | COc1cc(C2CC2C(=O)C(C)(C)C(=O)C2CC2c2ccc(O)c(OC)c2)ccc1O (stereo not shown) [compound of formula 1, 1,3-bis(2-(4-hydroxy-3-methoxyphenyl)cyclopropyl)-2,2-dimethylpropane-1,3-dione] | 5591 | 2996 | 232 | 286 | 8321 |
